Assay results taken from patent publication US20260130901A1, “CGRP RECEPTOR ANTAGONIST FOR THE TREATMENT OF MIGRAINE” (ALLERGAN PHARMACEUTICALS INTERNATIONAL LIMITED, priority 2022, published 2026).

Test system: participants with migraine (qualifying prodrome events)
Assay: Phase 3 crossover study: absence of prodrome symptoms over time
Type: in vivo, human
Details: 100 mg in prodrome; for Absence of dizziness, Nonresponder (%) / Absence of dizziness, Odds ratio vs. placebo / Absence of dizziness, Responder (%) / Absence of fatigue, Nonresponder (%) / Absence of fatigue, Odds ratio vs. placebo / Absence of fatigue, Responder (%) / Absence of neck pain, Nonresponder (%) / Absence of neck pain, Odds ratio vs. placebo / Absence of neck pain, Responder (%) / Absence of sensitivity to light, Nonresponder (%) / Absence of sensitivity to light, Odds ratio vs. placebo / Absence of sensitivity to light, Responder (%) / Absence of sensitivity to sound, Nonresponder (%) / Absence of sensitivity to sound, Odds ratio vs. placebo / Absence of sensitivity to sound, Responder (%): participants with symptom at predose
Experimental: A phase 3, multicenter, randomized, double-blind, placebo-controlled, crossover study was carried out to evaluate the efficacy, safety, and tolerability of oral ubrogepant in the acute treatment of migraine when administered during the prodrome. The study evaluated whether treatment during the initial phase of a migraine attack (i.e., the prodrome or premonitory phase) prior to the onset of headache, can attenuate the severity of the headache phase and reduce disability.
Eligible participants were randomized (1:1) to treatment sequences A or B in this crossover study. Participants randomized to Treatment Sequence A received placebo to treat their first qualifying prodrome event and ubrogepant 100 mg to treat their second qualifying prodrome event. For those randomized to Treatment Sequence B, they received the reverse: ubrogepant 100 mg to treat their first qualifying prodrome event and placebo to treat their second qualifying prodrome event.
N1 is the number of participants with the prodrome symptom at predose. N2 is the number of participants with non-missing prodrome symptom intensity assessment by timepoint after dose. The proportion of events with absence of sensitivity to light after ubrogepant 100 mg was numerically greater than after placebo, starting at 2 hours post-dose and extending through 48 hours (nominal P≤0.0109 for hours 2-8).
N1 is the number of participants with the prodrome symptom at predose. N2 is the number of participants with non-missing prodrome symptom intensity assessment by timepoint after dose. The difference in response rates was nominally significant for the ubrogepant 100 mg dose group compared with placebo as early as 3 hours post-dose administered during the prodrome.
N1 is the number of participants with the prodrome symptom at predose. N2 is the number of participants with non-missing prodrome symptom intensity assessment by timepoint after dose.

## C[C@@H]1[C@H](c2ccccc2)C[C@H](NC(=O)c2cnc3c(c2)C[C@@]2(C3)C(=O)Nc3ncccc32)C(=O)N1CC(F)(F)F [Ubrogepant, (3′S)—N-((3S,5S,6R)-6-methyl-2-oxo-5-phenyl-1-(2,2,2-trifluoroethyl)piperidin-3-yl)-2′-oxo-1′,2′,5,7-tetrahydrospiro[cyclopenta[b]pyridine-6,3′-pyrrolo[2,3-b]pyridine]-3-carboxamide]
  Response rates vs placebo, absence of dizziness: Numerically higher response rates
  Response rates vs placebo, absence of sensitivity to sound: Numerically higher response rates
1 Hour post dose
  Absence of dizziness, Nonresponder (%): (90.0) %
  Absence of dizziness, Odds ratio vs. placebo: 0.96
  Absence of dizziness, Responder (%): (10.0) %
  Absence of fatigue, Nonresponder (%): (95.1) %
  Absence of fatigue, Odds ratio vs. placebo: 1.23
  Absence of fatigue, Responder (%): (4.9) %
  Absence of neck pain, Nonresponder (%): (95.8) %
  Absence of neck pain, Odds ratio vs. placebo: 1.43
  Absence of neck pain, Responder (%): (4.2) %
  Absence of sensitivity to light, Nonresponder (%): (95.2) %
  Absence of sensitivity to light, Odds ratio vs. placebo: 1.08
  Absence of sensitivity to light, Responder (%): (4.8) %
  Absence of sensitivity to sound, Nonresponder (%): (92.0) %
  Absence of sensitivity to sound, Odds ratio vs. placebo: 1.23
  Absence of sensitivity to sound, Responder (%): (8.0) %
2 Hours post dose
  Absence of dizziness, Nonresponder (%): (70.7) %
  Absence of dizziness, Odds ratio vs. placebo: 1.17
  Absence of dizziness, Responder (%): (29.3) %
  Absence of fatigue, Nonresponder (%): (81.6) %
  Absence of fatigue, Odds ratio vs. placebo: 1.43
  Absence of fatigue, Responder (%): (18.4) %
  Absence of neck pain, Nonresponder (%): (84.6) %
  Absence of neck pain, Odds ratio vs. placebo: 1.39
  Absence of neck pain, Responder (%): (15.4) %
  Absence of sensitivity to light, Nonresponder (%): (80.5) %
  Absence of sensitivity to light, Odds ratio vs. placebo: 1.72
  Absence of sensitivity to light, Responder (%): (19.5) %
  Absence of sensitivity to sound, Nonresponder (%): (74.7) %
  Absence of sensitivity to sound, Odds ratio vs. placebo: 1.59
  Absence of sensitivity to sound, Responder (%): (25.3) %
3 Hours post dose
  Absence of dizziness, Nonresponder (%): (60.7) %
  Absence of dizziness, Odds ratio vs. placebo: 1.60
  Absence of dizziness, Responder (%): (39.3) %
  Absence of fatigue, Nonresponder (%): (72.7) %
  Absence of fatigue, Odds ratio vs. placebo: 1.85
  Absence of fatigue, Responder (%): (27.3) %
  Absence of neck pain, Nonresponder (%): (71.1) %
  Absence of neck pain, Odds ratio vs. placebo: 2.04
  Absence of neck pain, Responder (%): (28.9) %
  Absence of sensitivity to light, Nonresponder (%): (67.6) %
  Absence of sensitivity to light, Odds ratio vs. placebo: 1.58
  Absence of sensitivity to light, Responder (%): (32.4) %
  Absence of sensitivity to sound, Nonresponder (%): (64.4) %
  Absence of sensitivity to sound, Odds ratio vs. placebo: 1.45
  Absence of sensitivity to sound, Responder (%): (35.6) %
4 Hours post dose
  Absence of dizziness, Nonresponder (%): (50.0%
  Absence of dizziness, Odds ratio vs. placebo: 1.37
  Absence of dizziness, Responder (%): (50.0) %
  Absence of fatigue, Nonresponder (%): (65.2) %
  Absence of fatigue, Odds ratio vs. placebo: 1.93
  Absence of fatigue, Responder (%): (34.8) %
  Absence of neck pain, Nonresponder (%): (61.3) %
  Absence of neck pain, Odds ratio vs. placebo: 2.27
  Absence of neck pain, Responder (%): (38.7) %
  Absence of sensitivity to light, Nonresponder (%): (55.2) %
  Absence of sensitivity to light, Odds ratio vs. placebo: 1.46
  Absence of sensitivity to light, Responder (%): (44.8) %
  Absence of sensitivity to sound, Nonresponder (%): (49.3) %
  Absence of sensitivity to sound, Odds ratio vs. placebo: 1.97
  Absence of sensitivity to sound, Responder (%): (50.7) %
6 Hours post dose
  Absence of dizziness, Nonresponder (%): (37.8) %
  Absence of dizziness, Odds ratio vs. placebo: 1.45
  Absence of dizziness, Responder (%): (62.2) %
  Absence of fatigue, Nonresponder (%): (56.3) %
  Absence of fatigue, Odds ratio vs. placebo: 1.46
  Absence of fatigue, Responder (%): (43.7) %
  Absence of neck pain, Nonresponder (%): (52.0) %
  Absence of neck pain, Odds ratio vs. placebo: 1.68
  Absence of neck pain, Responder (%): (48.0) %
  Absence of sensitivity to light, Nonresponder (%): (42.1) %
  Absence of sensitivity to light, Odds ratio vs. placebo: 1.75
  Absence of sensitivity to light, Responder (%): (57.9) %
  Absence of sensitivity to sound, Nonresponder (%): (43.3) %
  Absence of sensitivity to sound, Odds ratio vs. placebo: 1.44
  Absence of sensitivity to sound, Responder (%): (56.7) %
8 Hours post dose
  Absence of dizziness, Nonresponder (%): (27.9) %
  Absence of dizziness, Odds ratio vs. placebo: 1.33
  Absence of dizziness, Responder (%): (72.1) %
  Absence of fatigue, Nonresponder (%): (46.1) %
  Absence of fatigue, Odds ratio vs. placebo: 1.87
  Absence of fatigue, Responder (%): (53.9) %
  Absence of neck pain, Nonresponder (%): (49.7) %
  Absence of neck pain, Odds ratio vs. placebo: 1.40
  Absence of neck pain, Responder (%): (50.3) %
  Absence of sensitivity to light, Nonresponder (%): (28.9) %
  Absence of sensitivity to light, Odds ratio vs. placebo: 2.40
  Absence of sensitivity to light, Responder (%): (71.1) %
  Absence of sensitivity to sound, Nonresponder (%): (33.8) %
  Absence of sensitivity to sound, Odds ratio vs. placebo: 1.75
  Absence of sensitivity to sound, Responder (%): (66.2) %
24 Hours post dose
  Absence of dizziness, Nonresponder (%): (11.5) %
  Absence of dizziness, Odds ratio vs. placebo: 1.82
  Absence of dizziness, Responder (%): (88.5) %
  Absence of fatigue, Nonresponder (%): (31.4) %
  Absence of fatigue, Odds ratio vs. placebo: 1.19
  Absence of fatigue, Responder (%): (68.6) %
  Absence of neck pain, Nonresponder (%): (28.6) %
  Absence of neck pain, Odds ratio vs. placebo: 1.42
  Absence of neck pain, Responder (%): (71.4) %
  Absence of sensitivity to light, Nonresponder (%): (18.1) %
  Absence of sensitivity to light, Odds ratio vs. placebo: 1.37
  Absence of sensitivity to light, Responder (%): (81.9) %
  Absence of sensitivity to sound, Nonresponder (%): (16.9) %
  Absence of sensitivity to sound, Odds ratio vs. placebo: 1.38
  Absence of sensitivity to sound, Responder (%): (83.1) %
48 Hours post dose
  Absence of dizziness, Nonresponder (%): (10.5) %
  Absence of dizziness, Odds ratio vs. placebo: 1.66
  Absence of dizziness, Responder (%): (89.5) %
  Absence of fatigue, Nonresponder (%): (22.9) %
  Absence of fatigue, Odds ratio vs. placebo: 1.22
  Absence of fatigue, Responder (%): (77.1) %
  Absence of neck pain, Nonresponder (%): (22.2) %
  Absence of neck pain, Odds ratio vs. placebo: 1.01
  Absence of neck pain, Responder (%): (77.8) %
  Absence of sensitivity to light, Nonresponder (%): (11.8) %
  Absence of sensitivity to light, Odds ratio vs. placebo: 1.52
  Absence of sensitivity to light, Responder (%): (88.2) %
  Absence of sensitivity to sound, Nonresponder (%): (11.7) %
  Absence of sensitivity to sound, Odds ratio vs. placebo: 0.93
  Absence of sensitivity to sound, Responder (%): (88.3) %
mITT
  Effect on the most commonly reported prodrome symptoms compared with placebo: ameliorated the most commonly reported prodrome symptoms
post-dose
  Earliest time at which difference in response rates vs placebo was nominally significant, absence of fatigue: 3 h
  Earliest time at which difference in response rates vs placebo was nominally significant, absence of neck pain: 3 h
